{
  "source": "patent US20250099474A1",
  "about": "(priority 2022, published 2025)",
  "key": {"[1]": {"experiment": "Phase I clinical study Part 1, single administration, pharmacokinetics and safety", "format": "in vivo, human", "settings": "phase 1 study", "procedure": "Test Example 3-1 Phase I Clinical Study\nAll studies were conducted based on Good Clinical Practice (GCP). The phase I clinical study was composed of Part 1 to Part 7, and in Part 1, the safety, tolerability, and pharmacokinetics were confirmed when the fumaric acid cocrystal Form I crystal of the compound represented by Formula (I) was administered once and when it was administered repeatedly.\nThe subjects who were determined to be eligible by the screening examination were randomly assigned to either the active drug group (see the following table for the dose of the fumaric acid cocrystal Form I crystal of the compound represented by Formula (I)) or the placebo group on the day before the day of administration of the investigational new drug (Day −1). On Day 1, the investigational new drug (active drug or placebo) was administered once in the fasted state."}, "[2]": {"system": "SARS-CoV-2", "experiment": "Phase 2/3 study, Phase 2b Part: score of 12 COVID-19 symptoms per unit time", "format": "in vivo, human", "procedure": "The primary endpoints of Phase 2b Part were the time-weighted average change in the total score of 12 COVID-19 symptoms per unit time from the start of the first administration (Day 1) to 120 hours (Day 6), and the change from baseline in SARS-CoV-2 virus titer on Day 4, in mild/moderate SARS-CoV-2-infected patients, and the clinical improvement and the antiviral effect of the active drug were confirmed.\nThe administration of the active drug is repeated oral administration once a day for 5 days. The 375/125 mg group received 375 mg on Day 1 as a loading dose and 125 mg on Days 2 to 5 as a maintenance dose. The 750/250 mg group received 750 mg on Day 1 as a loading dose and 250 mg on Days 2 to 5 as a maintenance dose.\nThe primary efficacy endpoints of Phase 2b Part for mild/moderate SARS-CoV-2-infected patients were the time-weighted average change in the total score of 12 COVID-19 symptoms per unit time from the start of the first administration (Day 1) to 120 hours (Day 6), and the change from baseline in SARS-CoV-2 virus titer on Day 4. The total score of 12 COVID-19 symptoms is the sum of the scores determined by evaluation in four grades (0: none, 1: mild, 2: moderate, 3: severe) in the subject daily records for each of the 12 COVID-19 symptoms (low energy and tiredness, muscle or body aches, headache, chills or shivering, feeling hot or feverish, stuffy and runny nose, sore throat, cough, shortness of breath (difficulty breathing), nausea, vomiting, diarrhea).\nPairwise comparison was performed between each active drug dose group and the placebo group. […] Pairwise comparison was performed between each active drug dose group and the placebo group.\nThe results of classifying the twelve COVID-19 symptoms shown in the above (2-a) into 5 types (acute symptoms, major clinical symptoms, respiratory symptoms, systemic symptoms, and gastrointestinal symptoms) and analyzing the same (ITT population) are shown in the following table. • Acute symptoms: sore throat, cough, feeling hot and feverish • Major clinical symptoms: stuffy and runny nose, sore throat, cough, chills or shivering, feeling hot or feverish • Respiratory symptoms: stuffy and runny nose, sore throat, cough, shortness of breath (difficulty breathing) • Systemic symptoms: low energy and tiredness, muscle or body aches, headache, chills or shivering, feeling hot or feverish • Gastrointestinal symptoms: nausea, vomiting, diarrhea"}, "[3]": {"settings": "ITT population, 375/125 mg group"}, "[4]": {"settings": "ITT population, 750/250 mg group"}},
  "data": [
    {"smiles": "Cn1cnc(Cn2c(=O)[nH]/c(=N\\c3cc4cn(C)nc4cc3Cl)n(Cc3cc(F)c(F)cc3F)c2=O)n1", "note": "[(6E)-6-[(6-chloro-2-methyl-2H-indazol-5-yl)imino]-3-[(1-methyl-1H-1,2,4-triazol-3-yl)methyl]-1-[(2,4,5-trifluorophenyl)methyl]-1,3,5-triazinane-2,4-dione]", "values": [
      {"measurement": "serious adverse events", "setting": "[1]", "result": "no serious adverse events for which a causal relationship cannot be denied were reported"},
      {"measurement": "Respiratory symptoms sub-total score as compared with the placebo group", "setting": "[2]; 375/125 mg group (p=0.0153) and 750/250 mg group (p=0.0032)", "result": "a significant improving effect was observed"},
      {"measurement": "Change up to 120 hours in total score of 12 COVID-19 symptoms per unit time as compared with the placebo group", "setting": "[2]; 375/125 mg group and 750/250 mg group", "result": "a numerical decrease tendency was observed as compared with the placebo group, but a statistically significant difference was not observed"},
      {"measurement": "Change from baseline up to 120 hours in sub-total score per unit time, acute symptoms: Adjusted mean value by covariance analysis (standard error)", "setting": "[2]; [3]", "result": "−2.36 (0.10)"},
      {"measurement": "Change from baseline up to 120 hours in sub-total score per unit time, acute symptoms: Difference of adjusted mean value from that of placebo group (standard error)", "setting": "[2]; [3]", "result": "−0.20 (0.12)"},
      {"measurement": "Change from baseline up to 120 hours in sub-total score per unit time, acute symptoms: Maximum value", "setting": "[2]; [3]", "result": 0.45},
      {"measurement": "Change from baseline up to 120 hours in sub-total score per unit time, acute symptoms: Mean value", "setting": "[2]; [3]", "result": "−2.52"},
      {"measurement": "Change from baseline up to 120 hours in sub-total score per unit time, acute symptoms: Median value", "setting": "[2]; [3]", "result": "−2.55"},
      {"measurement": "Change from baseline up to 120 hours in sub-total score per unit time, acute symptoms: Minimum value", "setting": "[2]; [3]", "result": "−6.19"},
      {"measurement": "Change from baseline up to 120 hours in sub-total score per unit time, gastrointestinal symptoms: Adjusted mean value by covariance analysis (standard error)", "setting": "[2]; [3]", "result": "−1.27 (0.14)"},
      {"measurement": "Change from baseline up to 120 hours in sub-total score per unit time, gastrointestinal symptoms: Difference of adjusted mean value from that of placebo group (standard error)", "setting": "[2]; [3]", "result": "0.06 (0.18)"},
      {"measurement": "Change from baseline up to 120 hours in sub-total score per unit time, gastrointestinal symptoms: Maximum value", "setting": "[2]; [3]", "result": "−0.16"},
      {"measurement": "Change from baseline up to 120 hours in sub-total score per unit time, gastrointestinal symptoms: Mean value", "setting": "[2]; [3]", "result": "−1.39"},
      {"measurement": "Change from baseline up to 120 hours in sub-total score per unit time, gastrointestinal symptoms: Median value", "setting": "[2]; [3]", "result": "−0.99"},
      {"measurement": "Change from baseline up to 120 hours in sub-total score per unit time, gastrointestinal symptoms: Minimum value", "setting": "[2]; [3]", "result": "−5.80"},
      {"measurement": "Change from baseline up to 120 hours in sub-total score per unit time, major clinical symptoms: Adjusted mean value by covariance analysis (standard error)", "setting": "[2]; [3]", "result": "−3.34 (0.14)"},
      {"measurement": "Change from baseline up to 120 hours in sub-total score per unit time, major clinical symptoms: Difference of adjusted mean value from that of placebo group (standard error)", "setting": "[2]; [3]", "result": "−0.34 (0.17)"},
      {"measurement": "Change from baseline up to 120 hours in sub-total score per unit time, major clinical symptoms: Maximum value", "setting": "[2]; [3]", "result": 0.55},
      {"measurement": "Change from baseline up to 120 hours in sub-total score per unit time, major clinical symptoms: Mean value", "setting": "[2]; [3]", "result": "−3.56"},
      {"measurement": "Change from baseline up to 120 hours in sub-total score per unit time, major clinical symptoms: Median value", "setting": "[2]; [3]", "result": "−3.33"},
      {"measurement": "Change from baseline up to 120 hours in sub-total score per unit time, major clinical symptoms: Minimum value", "setting": "[2]; [3]", "result": "−9.76"},
      {"measurement": "Change from baseline up to 120 hours in sub-total score per unit time, respiratory symptoms: Adjusted mean value by covariance analysis (standard error)", "setting": "[2]; [3]", "result": "−2.09 (0.12)"},
      {"measurement": "Change from baseline up to 120 hours in sub-total score per unit time, respiratory symptoms: Difference of adjusted mean value from that of placebo group (standard error)", "setting": "[2]; [3]", "result": "−0.37 (0.15)"},
      {"measurement": "Change from baseline up to 120 hours in sub-total score per unit time, respiratory symptoms: Maximum value", "setting": "[2]; [3]", "result": 1.30},
      {"measurement": "Change from baseline up to 120 hours in sub-total score per unit time, respiratory symptoms: Mean value", "setting": "[2]; [3]", "result": "−2.28"},
      {"measurement": "Change from baseline up to 120 hours in sub-total score per unit time, respiratory symptoms: Median value", "setting": "[2]; [3]", "result": "−1.99"},
      {"measurement": "Change from baseline up to 120 hours in sub-total score per unit time, respiratory symptoms: Minimum value", "setting": "[2]; [3]", "result": "−6.44"},
      {"measurement": "Change from baseline up to 120 hours in sub-total score per unit time, systemic symptoms: Adjusted mean value by covariance analysis (standard error)", "setting": "[2]; [3]", "result": "−3.31 (0.14)"},
      {"measurement": "Change from baseline up to 120 hours in sub-total score per unit time, systemic symptoms: Difference of adjusted mean value from that of placebo group (standard error)", "setting": "[2]; [3]", "result": "0.15 (0.18)"},
      {"measurement": "Change from baseline up to 120 hours in sub-total score per unit time, systemic symptoms: Maximum value", "setting": "[2]; [3]", "result": 1.80},
      {"measurement": "Change from baseline up to 120 hours in sub-total score per unit time, systemic symptoms: Mean value", "setting": "[2]; [3]", "result": "−3.71"},
      {"measurement": "Change from baseline up to 120 hours in sub-total score per unit time, systemic symptoms: Median value", "setting": "[2]; [3]", "result": "−3.18"},
      {"measurement": "Change from baseline up to 120 hours in sub-total score per unit time, systemic symptoms: Minimum value", "setting": "[2]; [3]", "result": "−14.30"},
      {"measurement": "Change from baseline up to 120 hours in sub-total score per unit time, acute symptoms: Adjusted mean value by covariance analysis (standard error)", "setting": "[2]; [4]", "result": "−2.50 (0.10)"},
      {"measurement": "Change from baseline up to 120 hours in sub-total score per unit time, acute symptoms: Difference of adjusted mean value from that of placebo group (standard error)", "setting": "[2]; [4]", "result": "−0.33 (0.12)"},
      {"measurement": "Change from baseline up to 120 hours in sub-total score per unit time, acute symptoms: Maximum value", "setting": "[2]; [4]", "result": 0.52},
      {"measurement": "Change from baseline up to 120 hours in sub-total score per unit time, acute symptoms: Mean value", "setting": "[2]; [4]", "result": "−2.63"},
      {"measurement": "Change from baseline up to 120 hours in sub-total score per unit time, acute symptoms: Median value", "setting": "[2]; [4]", "result": "−2.71"},
      {"measurement": "Change from baseline up to 120 hours in sub-total score per unit time, acute symptoms: Minimum value", "setting": "[2]; [4]", "result": "−6.93"},
      {"measurement": "Change from baseline up to 120 hours in sub-total score per unit time, gastrointestinal symptoms: Adjusted mean value by covariance analysis (standard error)", "setting": "[2]; [4]", "result": "−1.08 (0.14)"},
      {"measurement": "Change from baseline up to 120 hours in sub-total score per unit time, gastrointestinal symptoms: Difference of adjusted mean value from that of placebo group (standard error)", "setting": "[2]; [4]", "result": "0.25 (0.18)"},
      {"measurement": "Change from baseline up to 120 hours in sub-total score per unit time, gastrointestinal symptoms: Maximum value", "setting": "[2]; [4]", "result": 0.50},
      {"measurement": "Change from baseline up to 120 hours in sub-total score per unit time, gastrointestinal symptoms: Mean value", "setting": "[2]; [4]", "result": "−1.13"},
      {"measurement": "Change from baseline up to 120 hours in sub-total score per unit time, gastrointestinal symptoms: Median value", "setting": "[2]; [4]", "result": "−0.79"},
      {"measurement": "Change from baseline up to 120 hours in sub-total score per unit time, gastrointestinal symptoms: Minimum value", "setting": "[2]; [4]", "result": "−5.78"}
    ]}
  ]
}
